Assay results reported in PMC6436930 (Molecular Cell, 2019).

Target: MbcT (Rv1989c) (Mycobacterium tuberculosis, UniProt P9WLP9)
Sequence (P9WLP9 whole entry): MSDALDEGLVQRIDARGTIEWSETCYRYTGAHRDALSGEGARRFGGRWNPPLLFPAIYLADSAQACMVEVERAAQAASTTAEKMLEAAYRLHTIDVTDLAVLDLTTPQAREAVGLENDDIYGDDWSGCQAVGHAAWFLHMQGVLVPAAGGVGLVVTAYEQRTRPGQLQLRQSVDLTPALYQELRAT

Q: How did the Km turn out when `NC(=O)c1ccc[n+]([C@@H]2O[C@H](COP(=O)(O)OP(=O)(O)OC[C@H]3O[C@@H](n4cnc5c(N)ncnc54)[C@H](O)[C@@H]3O)[C@@H](O)[C@H]2O)c1` [NAD^+] was run?
A: 110 ± 8 µM
